# Experimental data reported in patent publication US20260217651A1 (priority 2022, published 2026).
# System: SD rats
# Experiment: animal or person
# Assay type: in vivo, rat
# Conditions: Rattus norvegicus, iv, read-out: Minimal effective anesthetic dose(mg/kg)
row,Compound,minimal effective dose
1,CCOC(=O)N(c1cccc(OC)c1)N1CCN(c2cc(C(C)C)c(O)c([C@H](C)C3CC3)c2)CC1 [Cpd-71],10 to 20 mg/kg
2,CCOC(=O)N(c1ccc(C)cc1)N1CCN(c2cc(C(C)C)c(O)c([C@H](C)C3CC3)c2)CC1 [Cpd-74],20 to 40 mg/kg
3,COC(=O)CC1CCN(Cc2cc(C(C)C)c(O)c([C@H](C)C3CC3)c2)CC1 [Cpd-77],< 5 mg/kg
4,COC(=O)CN1CCN(Cc2cc(C(C)C)c(O)c([C@H](C)C3CC3)c2)CC1 [Cpd-78-1],5 to 10 mg/kg
5,COC(=O)CC1CCN(c2cc(C(C)C)c(O)c([C@H](C)C3CC3)c2)CC1 [Cpd-80],< 5 mg/kg
6,CC(C)c1cc(N2CCC(CC(=O)OC(C)(C)C)CC2)cc([C@H](C)C2CC2)c1O [Cpd-81],< 5 mg/kg
7,COC(=O)CCC1CCN(c2cc(C(C)C)c(O)c([C@H](C)C3CC3)c2)CC1 [Cpd-82],< 5 mg/kg
8,COC(=O)C1CCN(c2cc(C(C)C)c(O)c([C@H](C)C3CC3)c2)CC1 [Cpd-84-1],< 5 mg/kg
9,CC(C)c1cc(N2CCC(C(=O)OC(C)(C)C)CC2)cc([C@H](C)C2CC2)c1O [Cpd-85-1],< 5 mg/kg
10,COC(=O)CN1CC=C(c2cc(C(C)C)c(O)c([C@H](C)C3CC3)c2)CC1 [Cpd-86],< 5 mg/kg
11,COC(=O)CN1CCC(N(CC(=O)OC)c2cc(C(C)C)c(O)c([C@H](C)C3CC3)c2)CC1 [Cpd-87],10 to 20 mg/kg
12,C=C[C@@H](C)c1cc(N2CCN(CC(=O)OC)CC2)cc(C(C)C)c1O [Cpd-89],10 to 20 mg/kg
13,CCOC(=O)N(c1cccc(C#N)c1)N1CCN(c2cc(C(C)C)c(O)c(C(C)C)c2)CC1 [Cpd-95],20 to 40 mg/kg
14,CCOC(=O)N(c1ccc(OC)c(F)c1)N1CCN(c2cc(C(C)C)c(O)c(C(C)C)c2)CC1 [Cpd-101],10 to 20 mg/kg
15,CCOC(=O)N(c1ccc(OC)c(Br)c1)N1CCN(c2cc(C(C)C)c(O)c(C(C)C)c2)CC1 [Cpd-103],20 to 40 mg/kg
16,CCOC(=O)N(c1cccc(Cl)c1)N1CCN(c2cc(C(C)C)c(O)c([C@@H](C)C3CC3)c2)CC1 [Cpd-106],10 to 20 mg/kg
17,CCOC(=O)N(Cc1ccoc1)N1CCN(c2cc(C(C)C)c(O)c(C(C)C)c2)CC1 [Cpd-126],10 to 20 mg/kg
18,CCOC(=O)N(Cc1cccc(Cl)c1)N1CCN(c2cc(C(C)C)c(O)c(C(C)C)c2)CC1 [Cpd-127],5 to 10 mg/kg

# Same assay, conditions: rat, in vivo, iv
Compound,Onset time,Righting Reflex Duration,Sedation Duration,Minimal effective anesthetic dose(mg/kg)
CCOC(=O)N(c1cccc(OC)c1)N1CCN(c2cc(C(C)C)c(O)c([C@H](C)C3CC3)c2)CC1 [Cpd-71],0.55 min,17.52 min,37.65 min,–
CCOC(=O)N(c1ccc(C)cc1)N1CCN(c2cc(C(C)C)c(O)c([C@H](C)C3CC3)c2)CC1 [Cpd-74],0.50 min,26.28 min,69.23 min,–
COC(=O)CC1CCN(Cc2cc(C(C)C)c(O)c([C@H](C)C3CC3)c2)CC1 [Cpd-77],1.00 to 1.80 min,0.67 to 1.95 min,5.00 to 22.33 min,–
COC(=O)CN1CCN(Cc2cc(C(C)C)c(O)c([C@H](C)C3CC3)c2)CC1 [Cpd-78-1],0.62 min,2.73 min,22.58 min,–
COC(=O)CC1CCN(c2cc(C(C)C)c(O)c([C@H](C)C3CC3)c2)CC1 [Cpd-80],0.17 to 0.97 min,1.50 to 12.97 min,10.17 to 28.53 min,–
CC(C)c1cc(N2CCC(CC(=O)OC(C)(C)C)CC2)cc([C@H](C)C2CC2)c1O [Cpd-81],0.18 to 0.75 min,9.28 to 40.37 min,27.22 to 57.86 min,–
COC(=O)CCC1CCN(c2cc(C(C)C)c(O)c([C@H](C)C3CC3)c2)CC1 [Cpd-82],0.17 to 0.52 min,0.87 to 3.42 min,3.67 to 13.02 min,–
COC(=O)C1CCN(c2cc(C(C)C)c(O)c([C@H](C)C3CC3)c2)CC1 [Cpd-84-1],0.43 to 0.77 min,0.77 to 4.62 min,5.72 to 10.28 min,–
COC(=O)C1CCN(c2cc(C(C)C)c(O)c([C@H](C)C3CC3)c2)CC1 [Cpd-84],0.30 to 0.75 min,1.10 to 17.23 min,18.08 to 35.02 min,A (key: A≤5 mg/kg; 5 mg/kg<B≤10 mg/kg; 10 mg/kg<C≤20 mg/kg; 20 mg/kg<D≤40 mg/k; E>40 mg/kg)
CC(C)c1cc(N2CCC(C(=O)OC(C)(C)C)CC2)cc([C@H](C)C2CC2)c1O [Cpd-85-1],0.40 to 1.33 min,1.38 to 29.00 min,20.97 to 44.48 min,–
CC(C)c1cc(N2CCC(C(=O)OC(C)(C)C)CC2)cc([C@H](C)C2CC2)c1O [Cpd-85],0.18 to 0.55 min,1.28 to 4.92 min,5.05 to 15.13 min,A (key: A≤5 mg/kg; 5 mg/kg<B≤10 mg/kg; 10 mg/kg<C≤20 mg/kg; 20 mg/kg<D≤40 mg/k; E>40 mg/kg)
COC(=O)CN1CC=C(c2cc(C(C)C)c(O)c([C@H](C)C3CC3)c2)CC1 [Cpd-86],0.17 to 0.20 min,1.15 to 10.33 min,16.40 to 19.62 min,–
COC(=O)CN1CCC(N(CC(=O)OC)c2cc(C(C)C)c(O)c([C@H](C)C3CC3)c2)CC1 [Cpd-87],0.42 min,1.85 min,19.32 min,–
C=C[C@@H](C)c1cc(N2CCN(CC(=O)OC)CC2)cc(C(C)C)c1O [Cpd-89],0.18 min,0.88 min,22.78 min,–
CCOC(=O)N(c1cccc(C#N)c1)N1CCN(c2cc(C(C)C)c(O)c(C(C)C)c2)CC1 [Cpd-95],0.72 min,13.75 min,54.33 min,–
CCOC(=O)N(c1ccc(OC)c(F)c1)N1CCN(c2cc(C(C)C)c(O)c(C(C)C)c2)CC1 [Cpd-101],0.70 to 0.73 min,2.05 to 2.58 min,38.73 to 57.17 min,–
CCOC(=O)N(c1ccc(OC)c(Br)c1)N1CCN(c2cc(C(C)C)c(O)c(C(C)C)c2)CC1 [Cpd-103],0.15 min,14.85 min,107.67 min,–
CCOC(=O)N(c1cccc(Cl)c1)N1CCN(c2cc(C(C)C)c(O)c([C@@H](C)C3CC3)c2)CC1 [Cpd-106],1.55 to 1.60 min,3.35 to 24.10 min,98.82 to 103.67 min,–
CCOC(=O)N(Cc1ccoc1)N1CCN(c2cc(C(C)C)c(O)c(C(C)C)c2)CC1 [Cpd-126],0.42 min,14.90 min,21.85 min,–
CCOC(=O)N(Cc1cccc(Cl)c1)N1CCN(c2cc(C(C)C)c(O)c(C(C)C)c2)CC1 [Cpd-127],0.55 min,21.20 min,71.18 min,–
